Legend:
Kelly cells proteome = assay: Global quantitative proteomics in Kelly cells; assay type: cell-based, human; details: 1 μM, 5 hours, relative to DMSO
MCF7 cells = assay: CS-BLI cell viability assay, MCF7; assay type: cell-based
[1] = target: eIF4E (GST-eIF4E) / fluorescein-labelled eIF4G peptide (Homo sapiens, UniProt P06730); assay: Fluorescence polarization assay for displacement of eIF4G peptide from eIF4E; assay type: binding; details: three concentrations: 33, 100 and 300 μM
eIF4E = eIF4E (Homo sapiens, UniProt P06730); assay: eIF4E degradation in HEK293T cells by immunoblotting; assay type: cell-based; details: 0.1-10 μM for 24 h, and 1 μM for 0.5 h to 24 h
eIF4E, sequence (P06730 whole entry): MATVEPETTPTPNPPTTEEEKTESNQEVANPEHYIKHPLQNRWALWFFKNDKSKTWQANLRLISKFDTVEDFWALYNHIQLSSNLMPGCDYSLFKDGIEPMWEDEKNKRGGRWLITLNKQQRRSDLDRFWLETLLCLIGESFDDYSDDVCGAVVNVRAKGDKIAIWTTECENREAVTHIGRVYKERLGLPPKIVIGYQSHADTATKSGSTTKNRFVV

GB1-eIF4E = GB1-eIF4E (Homo sapiens, UniProt P06730); assay: Solution NMR titration; details: 15N-labelled GB1-eIF4E 100 μM, compound 50, 100 and 300 μM
GB1-eIF4E, sequence (P06730 whole entry): as above

Cereblon (CRBN) = Cereblon (CRBN) (Homo sapiens, UniProt Q96SW2); assay: Cellular Cereblon engagement assay; assay type: cell-based
Cereblon (CRBN), sequence (Q96SW2 whole entry): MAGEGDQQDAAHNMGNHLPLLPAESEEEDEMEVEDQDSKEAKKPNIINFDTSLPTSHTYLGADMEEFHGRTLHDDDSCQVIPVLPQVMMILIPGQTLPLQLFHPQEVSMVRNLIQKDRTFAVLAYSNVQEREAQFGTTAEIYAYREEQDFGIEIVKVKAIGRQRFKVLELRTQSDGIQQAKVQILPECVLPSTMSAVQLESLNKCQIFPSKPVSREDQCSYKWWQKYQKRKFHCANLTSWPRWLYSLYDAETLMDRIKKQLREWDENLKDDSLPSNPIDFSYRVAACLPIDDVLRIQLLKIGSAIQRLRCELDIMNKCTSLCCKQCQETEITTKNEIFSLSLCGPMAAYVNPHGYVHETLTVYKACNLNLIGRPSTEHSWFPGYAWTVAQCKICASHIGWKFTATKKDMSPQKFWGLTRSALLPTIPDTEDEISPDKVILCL

eIF4E (GST-eIF4E) / fluorescein-labelled eIF4G peptide, sequence (P06730 whole entry): as the sequence (P06730 whole entry) above

C/C(=N\Nc1nc(-c2ccc(-c3ccccc3)cc2)cs1)C(=O)NCCCCNc1cccc2c1C(=O)N(C1CCC(=O)NC1=O)C2=O (centres unmarked) [d4E-2]
change in protein expression, IMiD neo-substrates (Kelly cells proteome): downregulation of C2H2 zinc finger targets, SALL4, ZNF692 and ZNF827

O=C(O)C(Cc1ccccc1[N+](=O)[O-])=NNc1nc(-c2ccc(Cl)c(Cl)c2)cs1 [4EGI-1, reference compound]
decrease in viability (IC50) at 72 h as compared to 24 h (MCF7 cells): 2 fold

O=C(O)/C(Cc1ccccc1[N+](=O)[O-])=N\Nc1nc(-c2ccc(-c3ccccc3)cc2)cs1 [i4EG-BiP]
decrease in viability (IC50) at 72 h as compared to 24 h (MCF7 cells): more than 3 fold

O=C(COc1cccc2c1C(=O)N(C1CCC(=O)NC1=O)C2=O)NCCCCNC(=O)Cc1sc(N/N=C(\Cc2ccccc2[N+](=O)[O-])C(=O)O)nc1-c1ccc(Cl)c(Cl)c1 (centres unmarked) [d4E-1]
displacement of the 4G peptide compared with 4EGI-1 [1]: displaced the 4G peptide in a similar manner

C/C(=N\Nc1nc(-c2ccc(Cl)c(Cl)c2)c(CC(=O)NCCNc2cccc3c2C(=O)N(C2CCC(=O)NC2=O)C3=O)s1)C(=O)OCOC(=O)C(C)(C)C (centres unmarked) [d4E-6]
degradation of eIF4E by immunoblotting (eIF4E): neither experiment showed significant degradation of eIF4E

C/C(=N\Nc1nc(-c2ccc(-c3ccccc3)cc2)cs1)C(=O)NCCNc1cccc2c1C(=O)N(C1CCC(=O)NC1=O)C2=O (centres unmarked) [d4E-4]
degradation of eIF4E by immunoblotting (eIF4E): neither experiment showed significant degradation of eIF4E | chemical shift perturbations (CSPs) on titration (GB1-eIF4E): Significant CSPs were observed in both cases at the binding interface

O=C1CCC(N2C(=O)c3cccc(NCCCCNC(=O)/C(=N\Nc4nc(-c5ccc(-c6ccccc6)cc5)cs4)c4ccccc4[N+](=O)[O-])c3C2=O)C(=O)N1 (centres unmarked) [d4E-3]
fold less active than d4E-2 in cellular CRBN engagement (Cereblon (CRBN)): approximately 8 fold

— article PMC8846605 (European journal of medicinal chemistry, 2021)
